Common to all, as to format: cell-based
Data set [1] deals with Primary T cells. The data set is described as follows: Antiproliferative activity (AP), mitotic index by flow cytometry. The following applies: T-cell, read-out: AP50 (Inhibitory concentration 50% for antiproliferative capacity). Here is the method: Primary T cells are cultured and exposed to different concentrations of the test compounds. Cell proliferation is analysed by measuring mitotic index (ie the number of cell divisions a population of cells undergoes) through flow cytometry based techniques. Mitotic index is expressed as percentage of untreated control. Inhibition of cell proliferation (AP) is then calculated (AP=100 minus % mitotic index compared to control, AP of control=0%). Inhibitory concentration 50% for antiproliferative capacity (AP50) is calculated.
(§1) In Tables 2, 3 and 4, ND means Not Determined.

Data set [2] relates to Primary T cells. The data set is described as follows: Cytotoxicity, percentage of viable cells by flow cytometry. The conditions noted are these: viability. Here is the method:
Primary T cells are cultured and treated with different concentrations of the test compound. Viability is analysed by measuring through flow cytometry based techniques the percentage of viable cells, compared to untreated control=100%).
as §1

Data set [3] deals with laboratory strain of HIV-1. Kind of data set: Antiviral activity against HIV (AV), p24 in infected activated primary T cells. The following applies: for IC50: Human immunodeficiency virus 1, T-cell, read-out: AV50 (Inhibitory concentration 50% for antiviral activity); for antiviral and antiproliferative activity and cytotoxicity profile (in words): summary of AV, AP and cytotoxicity assays; for anti-HIV and cytotoxicity profile (in words): summary of AV and cytotoxicity assays. The protocol: Activated primary T cells are infected with a laboratory strain of HIV-1, then cultured and exposed to different concentrations of the test compounds. HIV replication is analysed by measuring the viral protein p24 and expressed as percentage of untreated control. Inhibition of viral replication (AV) is then calculated (AV=100 minus the % p24 compared to control, AV of control=0%). Inhibitory concentration 50% for antiviral activity (AV50) is calculated.
as §1

Where two headings read alike, the source gives them in different places.

`COc1ccc(Nc2cc(-c3ccccc3OC)ncn2)cc1CN1C(=O)c2ccccc2C1=O` [Example 3, 2-(2-Methoxy-5-(6-(2-methoxyphenyl)pyrimidin-4-ylamino)benzyl)isoindoline-1,3-dione]: in data set [1], the IC50 is more than 1 µM. In addition, in data set [2], the “TD50 (Toxic dose 50%)” value is more than 5 µM.
Take `COc1ccccc1-c1cc(Nc2ccc(N(C)C)cc2)ncn1` [Example 5, N^1-(6-(2-methoxyphenyl)pyrimidin-4-yl)-N^4,N^4-dimethylbenzene-1,4-diamine]: in data set [3], the IC50 stood at 0.3 µM; the “antiviral and antiproliferative activity and cytotoxicity profile (in words)” value is “good antiviral and antiproliferative activity and a good cytotoxicity profile”. The IC50 in data set [1] was determined as 0.15 µM. For the same compound, the “TD50 (Toxic dose 50%)” value in data set [2] was more than 10 µM.
In the case of `COc1ccc(Nc2cc(-c3ccccc3OC)ncn2)cc1OCCN1CCOCC1` [Example 8, N-(4-Methoxy-3-(2-morpholinoethoxy)phenyl)-6-(2-methoxyphenyl)pyrimidin-4-amine], the results for the IC50 in data set [3] and in data set [1] were 0.4 µM and more than 1.5 µM, respectively. Besides, the “TD50 (Toxic dose 50%)” value in data set [2] is more than 1.5 µM.
On to `COc1ccccc1-c1cc(Nc2ccc(Cl)c(CN3C(=O)c4ccccc4C3=O)c2)ncn1` [Example 20, 2-(2-Chloro-5-(6-(2-methoxyphenyl)pyrimidin-4-ylamino)benzyl)isoindoline-1,3-dione], for which the IC50 is more than 1.5 µM in data set [3] and more than 0.5 µM in data set [1]. Moreover, the “TD50 (Toxic dose 50%)” value in data set [2] is more than 0.5 µM.
Consider `COc1ccc(Nc2cc(-c3ccccc3OC)ncn2)cc1OCc1ccccc1` [Example 36, N-(3-(Benzyloxy)-4-methoxyphenyl)-6-(2-methoxyphenyl)pyrimidin-4-amine], for which the IC50 in data set [1] was more than 5 µM. For the same compound, the “TD50 (Toxic dose 50%)” value in data set [2] was more than 5 µM.
In the case of `COc1ccc(Nc2cc(-c3ccccc3OC)ncn2)cc1C(=O)N(C)N` [Example 46, 2-Methoxy-5-[6-(2-methoxy-phenyl)-pyrimidin-4-ylamino]-benzoic acid N-methyl-hydrazide], the IC50 in data set [3] is 5 µM. For the same compound, the “TD50 (Toxic dose 50%)” value in data set [2] is more than 10 µM.
For the compound `COc1ccc(Nc2cc(-c3ccc(F)cc3OC)ncn2)cc1N` [Example 64], in data set [3], the IC50 turned out to be 5 µM; the “antiviral and antiproliferative activity and cytotoxicity profile (in words)” value is “good antiviral and antiproliferative activity and a good cytotoxicity profile”. The IC50 in data set [1] (primary T cells, mitotic index) was less than 0.08 µM.
Take `COc1ccc(Nc2cc(-c3cc(F)ccc3OC)ncn2)cc1N` [Example 75, N^1-[6-(5-Fluoro-2-methoxy-phenyl)-pyrimidin-4-yl]-4-methoxy-benzene-1,3-diamine]: in data set [3], the IC50 was 0.01 µM; the “antiviral and antiproliferative activity and cytotoxicity profile (in words)” value is “good antiviral and antiproliferative activity and a good cytotoxicity profile”. Besides, the IC50 in data set [1] (primary T cells, mitotic index) was less than 0.08 µM.
Consider `COc1ccc(Nc2cc(-c3ccccc3OC(C)C)ncn2)cc1N` [Example 79, N^1-[6-(2-Isopropoxy-phenyl)-pyrimidin-4-yl]-4-methoxy-benzene-1,3-diamine], for which, in data set [3], the IC50 was determined as 0.008 µM; the “antiviral and antiproliferative activity and cytotoxicity profile (in words)” value was “good antiviral and antiproliferative activity and a good cytotoxicity profile”. Also, the IC50 in data set [1] (primary T cells, mitotic index) is less than 0.08 µM.
Regarding `CCOc1ccc(Nc2cc(-c3ccccc3OC)ncn2)cc1C(N)=O` [Example 111, 2-Ethoxy-5-[6-(2-methoxy-phenyl)-pyrimidin-4-ylamino]-benzamide], in data set [3], the IC50 was 0.007 µM; the “antiviral and antiproliferative activity and cytotoxicity profile (in words)” value is “good antiviral and antiproliferative activity and a good cytotoxicity profile”. For the same compound, the IC50 in data set [1] (primary T cells, mitotic index) turned out to be 0.016 µM.
Turning to `CCOc1ccc(Nc2cc(-c3ccc(F)cc3OC)ncn2)cc1C(N)=O` [Example 112, 2-Ethoxy-5-[6-(4-fluoro-2-methoxy-phenyl)-pyrimidin-4-ylamino]-benzamide], the IC50 in data set [3] was 0.006 µM; in data set [1] (primary T cells, mitotic index), less than 0.003 µM. Besides, the “antiviral and antiproliferative activity and cytotoxicity profile (in words)” value in data set [3] is “good antiviral and antiproliferative activity and a good cytotoxicity profile”.
`COc1ccc(Nc2cc(-c3ccc(F)cc3OC)ncn2)cc1NC(C)=O` [Example 117, N-{5-[6-(4-Fluoro-2-methoxy-phenyl)-pyrimidin-4-ylamino]-2-methoxy-phenyl}-acetamide]: in data set [3], the IC50 was 0.2 µM. In addition, in data set [2], the “TD50 (Toxic dose 50%)” value was more than 2 µM.
Turning to `COC(=O)Nc1cc(Nc2cc(-c3ccc(F)cc3OC)ncn2)ccc1OC` [Example 118, {5-[6-(4-Fluoro-2-methoxy-phenyl)-pyrimidin-4-ylamino]-2-methoxy-phenyl}-carbamic Acid Methyl Ester], in data set [3], the IC50 was 1.5 µM. The “TD50 (Toxic dose 50%)” value in data set [2] was more than 2 µM.
For `COc1ccc(Nc2cc(-c3ccc(F)cc3OC)ncn2)cc1OC(C)=O` [Example 126, Acetic Acid 5-[6-(4-fluoro-2-methoxy-phenyl)-pyrimidin-4-ylamino]-2-methoxy-phenyl Ester], in that order: 0.1 µM and more than 2 µM.
Consider `COc1ccc(Nc2cc(-c3cc(F)ccc3OC)ncn2)cc1C(N)=O` [Example 127, 5-[6-(5-Fluoro-2-methoxy-phenyl)-pyrimidin-4-ylamino]-2-methoxy-benzamide], for which, in data set [3], the IC50 amounted to 0.003 µM; the “antiviral and antiproliferative activity and cytotoxicity profile (in words)” value is “good antiviral and antiproliferative activity and a good cytotoxicity profile”. Also, in data set [1], the IC50 was less than 0.08 µM.
On to `COc1ccc(Nc2cc(-c3ccc(F)cc3OC)ncn2)cc1C(N)=O` [Example 128, 5-[6-(4-Fluoro-2-methoxy-phenyl)-pyrimidin-4-ylamino]-2-methoxy-benzamide], for which the IC50 in data set [3] is less than 0.003 µM; in data set [1], 0.03 µM. In addition, the “antiviral and antiproliferative activity and cytotoxicity profile (in words)” value in data set [3] was “good antiviral and antiproliferative activity and a good cytotoxicity profile”.
Consider `CCOc1ccccc1-c1cc(Nc2ccc(OC)c(C(N)=O)c2)ncn1` [Example 129, 5-[6-(2-Ethoxy-phenyl)-pyrimidin-4-ylamino]-2-methoxy-benzamide], for which the IC50 in data set [3] is 0.01 µM; in data set [1], less than 0.08 µM. The “antiviral and antiproliferative activity and cytotoxicity profile (in words)” value in data set [3] is “good antiviral and antiproliferative activity and a good cytotoxicity profile”.
As to `CCOc1ccc(F)cc1-c1cc(Nc2cc(F)c(OC)c(C(N)=O)c2)ncn1` [Example 142, 5-[6-(2-Ethoxy-5-fluoro-phenyl)-pyrimidin-4-ylamino]-3-fluoro-2-methoxy-benzamide], the IC50 in data set [3] and in data set [1] was 0.04 µM each time. Further, the “antiviral and antiproliferative activity and cytotoxicity profile (in words)” value in data set [3] was “good antiviral and antiproliferative activity and a good cytotoxicity profile”.
On to `COc1cc(F)c(Nc2cc(-c3ccccc3OC)ncn2)cc1C(N)=O` [Example 143, 4-Fluoro-2-methoxy-5-[6-(2-methoxy-phenyl)-pyrimidin-4-ylamino]-benzamide], for which, in data set [3], the IC50 was found to be 0.016 µM; the “antiviral and antiproliferative activity and cytotoxicity profile (in words)” value is “good antiviral and antiproliferative activity and a good cytotoxicity profile”. Besides, in data set [1], the IC50 was more than 0.08 µM.
In the case of `COc1cc(F)c(Nc2cc(-c3cc(F)ccc3OC)ncn2)cc1C(N)=O` [Example 144, 4-Fluoro-5-[6-(5-fluoro-2-methoxy-phenyl)-pyrimidin-4-ylamino]-2-methoxy-benzamide], in data set [3], the IC50 was less than 0.003 µM; the “antiviral and antiproliferative activity and cytotoxicity profile (in words)” value is “good antiviral and antiproliferative activity and a good cytotoxicity profile”. Further, in data set [1], the IC50 was determined as 0.09 µM.
For the compound `CCOc1ccccc1-c1cc(Nc2cc(C(N)=O)c(OC)cc2F)ncn1` [Example 145, 5-[6-(2-Ethoxy-phenyl)-pyrimidin-4-ylamino]-4-fluoro-2-methoxy-benzamide], in data set [3], the IC50 is 0.03 µM; the “antiviral and antiproliferative activity and cytotoxicity profile (in words)” value was “good antiviral and antiproliferative activity and a good cytotoxicity profile”. Also, the IC50 in data set [1] came out at 0.05 µM.
In the case of `COc1cc(F)c(Nc2cc(-c3ccc(F)cc3OC)ncn2)cc1C(N)=O` [Example 146, 4-Fluoro-5-[6-(4-fluoro-2-methoxy-phenyl)-pyrimidin-4-ylamino]-2-methoxy-benzamide], the IC50 in data set [3] is less than 0.003 µM; in data set [1], 0.04 µM. Besides, the “antiviral and antiproliferative activity and cytotoxicity profile (in words)” value in data set [3] was “good antiviral and antiproliferative activity and a good cytotoxicity profile”.
As to `CCOc1cc(F)ccc1-c1cc(Nc2cc(C(N)=O)c(OC)cc2F)ncn1` [Example 147, 5-[6-(2-Ethoxy-4-fluoro-phenyl)-pyrimidin-4-ylamino]-4-fluoro-2-methoxy-benzamide], in data set [3], the IC50 came out at 0.005 µM; the “antiviral and antiproliferative activity and cytotoxicity profile (in words)” value is “good antiviral and antiproliferative activity and a good cytotoxicity profile”. In addition, the IC50 in data set [1] came out at 0.04 µM.
`CN1CC[C@H](c2c(O)cc(O)c3c(=O)cc(-c4ccccc4Cl)oc23)[C@H](O)C1` [Flavopiridol, reference compound]: the IC50 in data set [3] (HIV-1 infected activated primary T cells, p24) was determined as 0.1 µM; in data set [1] (primary T cells, mitotic index), 0.03 µM. In addition, in data set [3], the “anti-HIV and cytotoxicity profile (in words)” value was “poor anti-HIV and cytotoxicity profile”.
With `CC[C@H](CO)Nc1nc(NCc2ccccc2)c2ncn(C(C)C)c2n1` [Roscovitine, reference compound], the “anti-HIV and cytotoxicity profile (in words)” value in data set [3] is “poor anti-HIV and cytotoxicity profile”. Besides, in data set [2], the “TD50 (Toxic dose 50%)” value was found to be 8 µM.
